The target in experiment [1] is T1, B. anthracis OSB-CoA synthetase (Bacillus anthracis, UniProt Q81K97). The experiment in a line: biochemical. In kind it is biochemical. The note with it: for Km: read-out: Km of varied substrate.
Experiment [2] has as its target T1, B. anthracis OSB-CoA synthetase. The experiment in a line: biochemical. The settings on record: for Km: read-out: Apparent Km. In kind it is biochemical.
Experiment [3] has the same target. The experiment in a line: biochemical. In kind it is binding.
A further experiment relates to B. anthracis ∆ANR strain. In kind it is cell-based, Bacillus anthracis.

Several values for one entry are separate records, joined by “and”; a condition that tells them apart may be missing. Equal entries are not always repeated. Entries after “also recorded” stand apart in the source; their conditions may differ. Where two headings read alike, the source gives them in different places.

T1 sequence (Q81K97 whole entry, looked up): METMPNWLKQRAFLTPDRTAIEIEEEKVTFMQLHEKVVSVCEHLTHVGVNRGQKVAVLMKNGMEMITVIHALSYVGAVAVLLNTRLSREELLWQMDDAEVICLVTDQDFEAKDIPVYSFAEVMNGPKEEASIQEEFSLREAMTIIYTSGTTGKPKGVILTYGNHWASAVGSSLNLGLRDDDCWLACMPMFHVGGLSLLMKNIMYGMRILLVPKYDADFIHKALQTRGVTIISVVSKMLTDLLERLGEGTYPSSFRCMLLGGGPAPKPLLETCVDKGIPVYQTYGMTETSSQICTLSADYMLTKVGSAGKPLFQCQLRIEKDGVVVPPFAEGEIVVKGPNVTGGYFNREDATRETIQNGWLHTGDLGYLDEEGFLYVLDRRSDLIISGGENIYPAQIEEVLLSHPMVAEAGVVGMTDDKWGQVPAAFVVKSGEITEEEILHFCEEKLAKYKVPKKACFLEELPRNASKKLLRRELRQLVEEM

For `O=C(O)CCC(=O)c1ccccc1C(=O)O` [OSB, o-succinylbenzoate], the Km – broadly, the substrate concentration at which the rate is half of its maximum – in experiment [1] was 3.6 µM and 2.8 µM; in experiment [2] (pH 7.5, 21°C) it was 21.9 ± 2 µM. For the same compound, in experiment [2] (pH 7.5, 21°C), the kcat (in general, the maximal rate divided by the concentration of active sites) amounted to 2.58 ± 0.06 s⁻¹. For the same compound, the “binding to free enzyme” value in experiment [3] is listed as “no significant binding”.

Regarding `CC(C)(COP(=O)(O)OP(=O)(O)OC[C@H]1O[C@@H](n2cnc3c(N)ncnc32)[C@H](O)[C@@H]1OP(=O)(O)O)[C@@H](O)C(=O)NCCC(=O)NCCSC(=O)c1ccccc1` [Benzoyl-CoA, benzoyl-CoA], in experiment [1], the Inhibition pattern result is on record as “mixed-type”; the “Ki / αKi values, range in words” value was “millimolar range”; the αKi amounted to 15.3 ± 2.6 mM; the affinity, expressed as Ki, was 3000 ± 500 µM.

On to `Nc1ncnc2c1ncn2[C@@H]1O[C@H](COP(=O)(O)OP(=O)(O)OP(=O)(O)O)[C@@H](O)[C@H]1O` [ATP], for which, in experiment [2] (pH 7.5, 21°C), the kcat was determined as 2.55 ± 0.0533 s⁻¹ and the Km is 26.8 ± 2.7 µM. Further, in experiment [3], the affinity, expressed as Kd, was 131 ± 22 µM and the “binding to free enzyme” value is on record as “No significant binding”.

`O=C(O)CCC(=O)c1ccccc1C(F)(F)F`: the “decrease in kcat/Km compared to OSB” value in experiment [2] was determined as 100 fold.

As to `Nc1ncnc2c1ncn2[C@@H]1O[C@H](COS(=O)(=O)NC(=O)CCC(=O)c2ccccc2C(F)(F)F)[C@@H](O)[C@H]1O` [TFMP-butyl-AMS, 5’-O-(N-(2-trifluoromethylphenyl)-4-oxobutyl) adenosine sulfonamide], the whole cell activity entry with B. anthracis ∆ANR strain is recorded as “limited whole cell activity”. Also, in experiment [1], the “Ki / αKi values, range in words” value is given as “low micromolar; also recorded: lower micromolar range”; the “αKi (affinity to enzyme-ATP complex)” value is on record as 108 ± 17.0 µM; the Ki (commonly a measure of affinity in units of concentration, obtained from inhibition or displacement) is 5.6 µM and 5.2 µM.

`Nc1ncnc2c1ncn2[C@@H]1O[C@H](COP(=O)(O)O)[C@@H](O)[C@H]1O` [AMP]: in experiment [1], the “Ki / αKi values, range in words” value is “millimolar range”; the Ki was 3600 µM and 4600 µM.

In the case of `O=C(O)CCC(=O)c1ccccc1C(F)(F)F` [Compound 5, 4-(2-trifluoromethylphenyl)-4-oxobutyric acid], in experiment [2], the “reduction in kcat compared to OSB” value turned out to be 10 fold. Also, the remaining activity at 1000 µM in experiment [2] (read-out: residual activity as substrate) came out at 5.8%.

Take `CC(C)(COP(=O)(O)OP(=O)(O)OC[C@H]1O[C@@H](n2cnc3c(N)ncnc32)[C@H](O)[C@@H]1OP(=O)(O)O)[C@@H](O)C(=O)NCCC(=O)NCCS` [CoA]: the Km in experiment [1] is 49.9 µM and 66.2 µM and 39.3 µM; in experiment [2], 279 µM and 194 µM and 269 µM and 231 µM; in experiment [2] (pH 7.5), 304 ± 22.1 µM. Also, the kcat in experiment [2] (pH 7.5) was 2.6 ± 0.075 s⁻¹. For the same compound, in experiment [3], the “binding to enzyme-Mg^2+ATP complex” value is reported as “no significant binding”. Further, the “binding to free enzyme” value in experiment [3] is listed as “no significant binding”.

(Values after article PMC2710618 (Biochemistry, 2008).)
